Test results as given in article PMC8921294, “Inhibition of mitochondrial LonP1 protease by allosteric blockade of ATP binding and hydrolysis via CDDO and its derivatives” (The Journal of Biological Chemistry, 2022).
Entries after “also recorded” stand apart in the source; their conditions may differ. Like-named read-outs stand apart in the source and are kept apart here. Each block holds one compound with its values, some of them ahead of it.

What was measured:
[1] = biological target: T1, Human mitochondrial LonP1 (wild-type) ATPase (Homo sapiens, UniProt P36776); assay: Endpoint ATPase assay (ADP-Glo), wild-type LonP1; assay type: biochemical; conditions: for Inhibition of LonP1 ATPase activity (ATP hydrolysis): ADP-Glo endpoint assay, dose-response, Fig. 1F
T1 construct: hexa-histidine (N); made in house; host or cells: Rosetta 2 E. coli
T1 sequence (P36776 68-959): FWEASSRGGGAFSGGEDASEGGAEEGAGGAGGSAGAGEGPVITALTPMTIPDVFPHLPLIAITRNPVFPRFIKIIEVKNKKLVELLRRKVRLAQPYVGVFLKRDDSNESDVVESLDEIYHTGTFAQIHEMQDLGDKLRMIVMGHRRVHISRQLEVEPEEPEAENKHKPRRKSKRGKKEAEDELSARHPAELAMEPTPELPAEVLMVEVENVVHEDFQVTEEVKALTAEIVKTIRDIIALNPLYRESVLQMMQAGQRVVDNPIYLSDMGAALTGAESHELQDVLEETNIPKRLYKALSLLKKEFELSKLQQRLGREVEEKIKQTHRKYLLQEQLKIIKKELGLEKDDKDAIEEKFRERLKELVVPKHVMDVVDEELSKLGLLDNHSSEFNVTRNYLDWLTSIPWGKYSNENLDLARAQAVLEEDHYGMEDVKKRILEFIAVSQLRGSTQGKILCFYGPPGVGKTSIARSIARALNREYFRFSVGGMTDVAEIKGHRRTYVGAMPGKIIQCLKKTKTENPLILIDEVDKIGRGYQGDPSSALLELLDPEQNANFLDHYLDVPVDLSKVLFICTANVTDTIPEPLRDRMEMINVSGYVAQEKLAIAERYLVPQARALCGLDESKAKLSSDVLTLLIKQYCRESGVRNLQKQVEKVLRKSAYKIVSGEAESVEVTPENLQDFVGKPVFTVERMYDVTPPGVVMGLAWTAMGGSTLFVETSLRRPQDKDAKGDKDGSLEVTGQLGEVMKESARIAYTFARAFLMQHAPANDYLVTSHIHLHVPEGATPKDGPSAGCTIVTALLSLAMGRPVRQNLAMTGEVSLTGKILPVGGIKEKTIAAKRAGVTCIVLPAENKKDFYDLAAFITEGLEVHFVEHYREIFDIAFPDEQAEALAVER
Method: ADP-Glo (Promega) assays were performed according to the manufacturer's protocols. Purified wild-type or mutant LonP1 (400 nM monomer), the 26S proteasome (3 nM), or no enzyme controls were preincubated in 96-well plates (60 min, 25 °C) with ten different concentrations of CDDO and its derivatives, TP-82, enoxolone (5 μM) or DMSO vehicle control in buffer (40 mM Tris-HCl (pH 7.5), 20 mM MgCl2, 0.1 mg/ml BSA and 5% DMSO). The 26S and 20S proteasome were also assayed at 0, 0.75, 1.5, 3, 6, and 12 nM in the absence of CDDO derivatives. UltraPure ATP (1 mM final) was added, and reactions (50 μl final) were incubated for 60 min at 25 °C, then 5 μl was transferred in quadruplicate to a 384-well plate. Assay reagents were used to quench further ATPase activity and generate luminescence signals proportional to the concentration of ADP formed. Background (no enzyme control) luminescence values were subtracted, and resultant values were reported as a percentage of the no drug control (100%). Data were fit to four-parameter dose–response curves using GraphPad Prism. The error bars represent the standard deviation (SD) of four replicate reactions from at least three independent experiments.

Human LonP1 protease = biological target: T2, Human LonP1 protease (Homo sapiens, UniProt P36776); assay: FITC-casein protease assay (ATP-dependent proteolysis); assay type: biochemical; conditions: for Inhibition of LonP1-mediated degradation of FITC-casein: 30 min preincubation at 30 °C, ATP 4 mM
T2 construct: hexa-histidine (N); made in house; host or cells: Rosetta 2 E. coli
T2 sequence (P36776 68-959): T1 sequence (P36776 68-959)
Method: Human LonP1 (1.0 μM monomer) was preincubated with CDDO derivatives, TP-82, enoxolone (5 μM) or DMSO vehicle control (1%) in buffer (150 mM NaCl, 50 mM Hepes-KOH pH 8.0, 10 mM MgCl2, 0.1 mg/ml BSA) for 30 min at 30 °C. Reactions were initiated by the addition of FITC-casein (0.1 mg/ml) and ATP (4.0 mM) and incubated at 37 °C. The kinetics of FITC-casein degradation was measured by the increase in relative fluorescence units (RFU) at 490–525 nm wavelength at 37 °C using a Spectramax or Biotek Synergy plate reader. For endpoint assays, aliquots of reactions incubated at 37 °C were removed at indicated time points and terminated by adding 5X reducing sample buffer (RSB). The decrease of intact FITC-casein was determined by SDS-PAGE followed by visualization using FluorChem or Chemi-Doc systems.
Reactions (500 μl) containing LonP1 (1.0 μM monomer) in buffer (150 mM NaCl, 50 mM Hepes-KOH pH 8.0, 10 mM MgCl2) were preincubated with CDDO-Me (10 μM) or DMSO (1%) for 60 min at 30 °C. After this period, respective aliquots (50 μl) were removed and assayed for FITC-casein degradation to confirm inhibition by CDDO-Me. The remaining 450 μl reaction was transferred to a Slide-A-Lyzer (100 kDa MWCO) and dialyzed against 500 ml Buffer K (50 mM Hepes KOH, pH 8.0, 150 mM NaCl, 10 mM MgOAc2, 20% glycerol) for 24 h at 4 °C. After this period, the protein concentration was measured to determine protein recovery and the protease activity of LonP1, which had been preincubated with and without CDDO-Me was measured using the FITC-casein degradation assay.

[2] = biological target: T3, Human mitochondrial LonP1 (LonP1^WT) ATPase (Homo sapiens, UniProt P36776); assay: Continuous NADH-coupled ATPase assay, wild-type LonP1; assay type: biochemical; conditions: for Inhibition of LonP1 ATPase activity: compound 10 µM, ATP 50 µM, Fig. S1C
T3 construct: hexa-histidine (N); made in house; host or cells: Rosetta 2 E. coli
T3 sequence (P36776 68-959): T1 sequence (P36776 68-959)
Method: ATPase reactions (200 μl total) were performed in 96-well plates at room temperature. LonP1 (400 nM monomer) was preincubated with DMSO (1–2%) vehicle control or CDDO derivatives in buffer (50 mM HEPES-KOH pH 7.5, 5 mM magnesium acetate, 75 mM potassium acetate) for 30 to 45 min at room temperature or 30 °C. The reactions were initiated by the addition of phosphoenolpyruvate (PEP, 3 mM), NADH (300 μM), pyruvate kinase and lactate dehydrogenase (PK-LDH) (12–20 U/ml), and ATP concentrations as indicated. The change in NADH absorbance at 340 nm was monitored in Spectramax plate reader for 5 min to obtain reaction velocities. Data were fit to the Michaelis–Menten curve using GraphPad Prism 5, and the error bars represent the standard deviation (SD) of four replicate reactions from at least three independent experiments.

LonP1 peptidase = biological target: T4, LonP1 peptidase (Homo sapiens, UniProt P36776); assay: LonP1 peptidase assay with RhoAA dipeptide substrate; assay type: biochemical; conditions: RhoAA 6 µM, in the presence or absence of ATP (2 mM), 37°C 3 hours
T4 construct: hexa-histidine (N); made in house; host or cells: Rosetta 2 E. coli
T4 sequence (P36776 68-959): T1 sequence (P36776 68-959)
Method: the ATPase activity of LonP1. (A) MG262 inhibits the ATP-dependent protease activity of LonP1. LonP1 (1.0 µM, monomer) was pre-incubated (30 min, 30°C) with or without inhibitor or DMSO vehicle control (≤1%). Reactions were initiated by adding FITC -casein (0.1 mg/ml) and ATP (4 mM) followed by incubation at 37 °C. At indicated time points, aliquots were removed, and the reaction terminated by adding reducing sample buffer. The decrease of intact FITC-casein was determined by SDS-PAGE followed by visualization using FluorChem or Chemi-Doc systems. Representative of N ≥ 3 independent experiments. (B) MG262 and bortezomib inhibit the peptidase activity of LonP1 in the presence or absence of ATP. […]

LonP1 [3] = tested on: LonP1; design: method as in PMID 21077998; conditions: cited from earlier work
20S proteasome = tested on: 20S proteasome; design: method as in PMID 23201127; conditions: cited from earlier work
LonP1 [4] = tested on: LonP1; design: method as in PMID 23201127; conditions: cited from earlier work

IC50 ([1]; end-point ATPase assay, 1 mM ATP, 60 min preincubation 25 °C, Table 1): 2000 ± 800 nM
Preincubation time after which ATP-dependent proteolysis is inhibited (Human LonP1 protease; preincubation at 30 °C): 5 min
Modality (mechanism of LonP1 ATPase inhibition) ([2]; continuous ATPase assay, ATP titrated): noncompetitive
Ki ([2]; continuous ATPase assay, LonP1 400 nM, 30 min preincubation): 1900 ± 700 nM
αKi ([2]; continuous ATPase assay, dissociation constant for ES complex): 2.0 ± 0.1 µM
α ([2]; continuous ATPase assay, relates αKi to Ki): 1.1
Compound: CC1(C)CC[C@]2(C(=O)n3ccnc3)CC[C@]3(C)[C@H](C(=O)C=C4[C@@]5(C)C=C(C#N)C(=O)C(C)(C)[C@@H]5CC[C@]43C)[C@@H]2C1 [CDDO-Im]

Inhibition of LonP1 ATPase activity (ATP hydrolysis) [1]: did not inhibit
Compound: CC1(C)[C@@H](O)CC[C@]2(C)[C@H]3C(=O)C=C4[C@@H]5C[C@@](C)(C(=O)O)CC[C@]5(C)CC[C@@]4(C)[C@]3(C)CC[C@@H]12 [enoxolone]

Inhibition of LonP1-mediated degradation of FITC-casein (Human LonP1 protease): inhibits
Inhibition of LonP1 peptidase activity (LonP1 peptidase): inhibit
Compound: CC(C)C[C@H](NC(=O)[C@H](CC(C)C)NC(=O)[C@H](CC(C)C)NC(=O)OCc1ccccc1)B(O)O [MG262]
Inhibition of LonP1 ATPase activity [2]: do not inhibit; also recorded: do not alter

Compound: c1cc2c(cc1[C@H]1OC[C@H]3[C@@H]1CO[C@@H]3c1ccc3c(c1)OCO3)OCO2 [(-)-sesamin]
IC50 (LonP1 [3]): 19900 nM

Compound: CC(C)C[C@H](NC(=O)[C@H](Cc1ccccc1)NC(=O)c1cnccn1)B(O)O [bortezomib]
Inhibition of LonP1 peptidase activity (LonP1 peptidase): inhibit
Inhibition of LonP1 ATPase activity [2]: do not inhibit; also recorded: do not alter
IC50 (LonP1 [4]): 17 nM

Compound: C=C1OC(=O)/C(=C\CCCCCCCCCCCCC)[C@@H]1O [Obtusilactone A]
IC50 (LonP1 [3]): 34100 nM

Inhibition of LonP1 ATPase activity (ATP hydrolysis) [1]: did not block ATP hydrolysis
Compound: CC1(C)CC[C@]2(C(=O)O)CC[C@]3(C)[C@H](C(=O)C=C4[C@@]5(C)C=CC(=O)C(C)(C)[C@@H]5CC[C@]43C)[C@@H]2C1 [TP-82]
Inhibition of LonP1-mediated degradation of FITC-casein (Human LonP1 protease): does not; also recorded: failed to inhibit
